Source: article PMC4521712, “Enhanced Bacterial α(2,6)-Sialyltransferase Reaction through an Inhibition of Its Inherent Sialidase Activity by Dephosphorylation of Cytidine-5'-Monophosphate” (PLoS ONE, 2015)

How the values were obtained:
Assay type in all cases: biochemical
P224-ST [1] = biological target: T1, P224-ST (Photobacterium sp. JT-ISH-224, UniProt A8QYL1); test: HPLC of AA-lactose released from AA-6'-sialyllactose (sialidase activity); conditions: 1 mM, 50 μM AA-6'-sialyllactose, 100 mM sodium phosphate pH 6.0, 37°C, 2 h
T1 construct: gene pst6-224; residues 18-514 with catalytic domain, pColdII N-terminal His-tag (kept), codon-optimised gene, E. coli BL21, Ni-NTA
T1 sequence (A8QYL1 18-514): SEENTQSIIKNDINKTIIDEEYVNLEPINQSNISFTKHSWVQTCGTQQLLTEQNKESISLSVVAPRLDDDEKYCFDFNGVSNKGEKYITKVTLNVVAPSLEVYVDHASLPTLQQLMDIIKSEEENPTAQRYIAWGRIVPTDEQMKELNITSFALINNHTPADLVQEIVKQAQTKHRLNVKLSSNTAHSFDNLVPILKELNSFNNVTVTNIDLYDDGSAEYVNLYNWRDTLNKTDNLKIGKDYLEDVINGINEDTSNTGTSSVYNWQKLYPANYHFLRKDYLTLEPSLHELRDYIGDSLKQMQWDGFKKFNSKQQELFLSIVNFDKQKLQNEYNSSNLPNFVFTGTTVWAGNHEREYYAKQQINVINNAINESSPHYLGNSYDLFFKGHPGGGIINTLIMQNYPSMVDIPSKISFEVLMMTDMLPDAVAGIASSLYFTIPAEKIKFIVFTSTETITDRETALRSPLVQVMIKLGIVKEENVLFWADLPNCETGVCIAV

P145-ST [2] = biological target: T2, P145-ST (Photobacterium leiognathi, UniProt A8R0T5); test: as above; conditions: inhibitor of sialidase activity, 0.01-10 mM; 50 μM AA-6'-sialyllactose, 100 mM sodium phosphate pH 6.0, 37°C, 2 h
T2 construct: gene plst6; residues 16-497 with catalytic domain, pColdII N-terminal His-tag (kept), codon-optimised gene, E. coli BL21, Ni-NTA
T2 sequence (A8R0T5 16-497): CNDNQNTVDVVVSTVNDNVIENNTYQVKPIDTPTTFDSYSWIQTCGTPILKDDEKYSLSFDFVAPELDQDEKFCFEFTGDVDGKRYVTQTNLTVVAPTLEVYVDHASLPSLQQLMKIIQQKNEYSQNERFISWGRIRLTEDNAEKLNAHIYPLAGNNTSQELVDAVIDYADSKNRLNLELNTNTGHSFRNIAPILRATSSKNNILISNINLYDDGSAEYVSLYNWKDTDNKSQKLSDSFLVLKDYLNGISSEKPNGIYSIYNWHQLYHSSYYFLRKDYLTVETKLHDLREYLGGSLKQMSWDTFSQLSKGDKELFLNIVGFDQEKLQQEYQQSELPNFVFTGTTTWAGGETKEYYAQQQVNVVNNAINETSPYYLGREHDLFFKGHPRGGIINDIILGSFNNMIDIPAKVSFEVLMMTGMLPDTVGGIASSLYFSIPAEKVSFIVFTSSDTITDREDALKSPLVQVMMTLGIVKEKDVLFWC

Pd-ST [3] = biological target: T3, Pd-ST (Photobacterium damselae, UniProt O66375); test: as above; conditions: 1 mM, 50 μM AA-6'-sialyllactose, 100 mM sodium phosphate pH 6.0, 37°C, 2 h
T3 construct: gene bst; residues 16-497 with catalytic domain, pColdII N-terminal His-tag (kept), codon-optimised gene, E. coli BL21, Ni-NTA
T3 sequence (O66375 16-497): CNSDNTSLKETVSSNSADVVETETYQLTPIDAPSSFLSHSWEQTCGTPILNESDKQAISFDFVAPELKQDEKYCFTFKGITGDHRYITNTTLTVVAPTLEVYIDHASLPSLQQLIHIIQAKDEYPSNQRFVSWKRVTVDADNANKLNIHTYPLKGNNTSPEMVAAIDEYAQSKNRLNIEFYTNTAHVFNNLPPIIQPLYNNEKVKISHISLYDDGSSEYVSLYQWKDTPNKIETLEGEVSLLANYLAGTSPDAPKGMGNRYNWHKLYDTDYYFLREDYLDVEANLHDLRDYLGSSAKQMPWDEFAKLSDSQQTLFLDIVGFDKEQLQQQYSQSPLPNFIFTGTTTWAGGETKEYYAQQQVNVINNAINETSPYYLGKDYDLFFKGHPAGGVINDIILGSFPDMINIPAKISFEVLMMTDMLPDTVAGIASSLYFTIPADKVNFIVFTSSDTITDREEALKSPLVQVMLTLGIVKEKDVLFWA

P224-ST [4] = biological target: T1, P224-ST; test: HPLC of sialylated AA-glycans, Michaelis-Menten fit; conditions: sialyltransferase; 0.5 mM CMP-Neu5Ac, 100 mM Tris-HCl pH 8.0, 30°C, 5 min; labelled compound; read-out: apparent Km
Description: HPLC of sialylated AA-glycans, Michaelis-Menten fit on P224-ST | The apparent Km values of Pd-, P224-, and P145-ST for G2-AA substrate are […]

Pd-ST [5] = biological target: T3, Pd-ST; test: as above; conditions: sialyltransferase; 0.5 mM CMP-Neu5Ac, 100 mM Tris-HCl pH 8.0, 30°C, 5 min; labelled compound; read-out: apparent Km
P145-ST [6] = biological target: T2, P145-ST; test: as above; conditions: sialyltransferase; 0.5 mM CMP-Neu5Ac, 100 mM Tris-HCl pH 8.0, 30°C, 5 min; labelled compound; read-out: apparent Km
Description: HPLC of sialylated AA-glycans, Michaelis-Menten fit on P145-ST | The apparent Km values of Pd-, P224-, and P145-ST for G2-AA substrate are […]

P145-ST [7] = biological target: T2, P145-ST; test: HPLC of AA-lactose released from AA-6'-sialyllactose (sialidase activity); conditions: 50 μM AA-6'-sialyllactose, 100 mM sodium phosphate pH 6.0, 37°C, 2 h
[8] = inhibitor of sialidase activity
[9] = activator of sialidase activity

Compound | HPLC of AA-lactose released from AA-6'-sialyllactose (sialidase activity) (P224-ST [1]; [8]) | HPLC of AA-lactose released from AA-6'-sialyllactose (sialidase activity) (P145-ST [2]) | HPLC of AA-lactose released from AA-6'-sialyllactose (sialidase activity) (Pd-ST [3]; [8]) | further results
Nc1ccn([C@@H]2O[C@H](COP(=O)(O)OP(=O)(O)O)[C@@H](O)[C@H]2O)c(=O)n1 [CDP] | all other tested nucleotides including CDP, CTP, and cytidine showed decreasing effects | CTP and CDP inhibited sialidase activity in a concentration-dependent manner | all other tested nucleotides including CDP, CTP, and cytidine showed decreasing effects | –
Nc1ccn([C@@H]2O[C@H](CO)[C@@H](O)[C@H]2O)c(=O)n1 [cytidine] | all other tested nucleotides including CDP, CTP, and cytidine showed decreasing effects | cytidine appeared to inhibit sialidase activity in an on-and-off mode | all other tested nucleotides including CDP, CTP, and cytidine showed decreasing effects | –
CC(=O)N[C@H]1[C@H](O[C@@H]([C@H](O)[C@H](CNc2ccccc2C(=O)O)NC(C)=O)[C@H](O)CO)O[C@H](CO)[C@@H](O[C@@H]2O[C@H](CO[C@H]3O[C@H](CO)[C@@H](O)[C@H](O)[C@@H]3O[C@@H]3O[C@H](CO)[C@@H](O[C@@H]4O[C@H](CO)[C@H](O)[C@H](O)[C@H]4O)[C@H](O)[C@H]3NC(C)=O)[C@@H](O)[C@H](O[C@H]3O[C@H](CO)[C@@H](O)[C@H](O)[C@@H]3O[C@@H]3O[C@H](CO)[C@@H](O[C@@H]4O[C@H](CO)[C@H](O)[C@H](O)[C@H]4O)[C@H](O)[C@H]3NC(C)=O)[C@@H]2O)[C@@H]1O [G2-AA, AA-labeled G2 glycan] | – | – | – | Km (P224-ST [4]): 39.2 ± 4.7 µM; Km (Pd-ST [5]): 36.1 ± 4.9 µM; Km (P145-ST [6]): 27.8 ± 5.8 µM
Nc1ccn([C@@H]2O[C@H](COP(=O)(O)O)[C@@H](O)[C@H]2O)c(=O)n1 [CMP] | – | – | – | % lactose formed at 10 mM (P145-ST [7]; [9]): 43%; HPLC of AA-lactose released from AA-6'-sialyllactose (sialidase activity) (P224-ST [1]; [9]): the addition of CMP increased the sialidase activity; HPLC of AA-lactose released from AA-6'-sialyllactose (sialidase activity) (Pd-ST [3]; [9]): the addition of CMP increased the sialidase activity
Nc1ccn([C@@H]2O[C@H](COP(=O)(O)OP(=O)(O)OP(=O)(O)O)[C@@H](O)[C@H]2O)c(=O)n1 [CTP] | all other tested nucleotides including CDP, CTP, and cytidine showed decreasing effects | – | all other tested nucleotides including CDP, CTP, and cytidine showed decreasing effects | % lactose formed at 10 mM (P145-ST [7]; [8]): 2%
